In general, MIC refers to the least concentration at which growth counts as inhibited. The ED50 is the dose that gives a 50% effect, or the effect in half of the subjects. A high value points to weaker potency.

The record followed here is patent US4316898A, “Cephalosporins” (Boehringer Ingelheim KG, priority 1979, dated 1982).

For assay [1], the system named is Pseudomonas aeruginosa Walter. The experiment in a line: Serial dilution test in the microtiter system, MIC against Pseudomonas aeruginosa Walter. Format: cell-based. The following applies: minimum inhibitory concentration, 37° C., 18 to 20 hours, read-out: MIC, Pseud. aerug. Walter. How it is done: (§1) The tests were performed using the serial dilution test in the microtiter system. The effect of the test compounds on bacteriostasis was examined at the following concentrations: 80, 40, 20, 10, 5, 2.5, 1.25, 0.6, 0.3, 0.08 and 0.02 μgm/ml. The nutrient medium consisted of 10 gm of peptone, 8 gm of meat extract oxoid, 3 gm of sodium chloride, and 2 gm of sec. sodium phosphate diluted with distilled water to […] (pH 7.2-7.4). Only in the test against streptococci 1% of glucose was added. The age of the primary cultures was approximately 20 hours. The standardization of the bacteria suspension was effected using a photometer according to the method of Eppendorf (test tube .phi. 14 mm, filter 546 nm), using for comparison a barium sulfate suspension formed by the addition of 3.0 ml of 1% barium chloride solution to 97 ml of 1% sulfuric acid. After the standardization,Streptococcus aronson was further diluted to a concentration of 1:15, and the other bacteria to a concentration of 1:1500, using a sodium chloride solution.
(§2) 16 mgm of the particular test compound were put into a 10 ml measuring flask, and the flask was subsequently filled to the mark with solvent. The further dilution series was standardized with distilled water or the appropriate solvent.
(§3) The cavities of the microtiter plates were filled with 0.2 ml of nutrient medium. 0.01 ml of the appropriate test compound solution was then added, followed by inoculation with 0.01 ml of the standardized bacteria suspension. The bacteria were incubated at 37° C. for 18 to 20 hours. Control tests using only the solvent were carried out simultaneously.
(§4) The measurement was carried out macroscopically to determine the minimum inhibitory concentration (the lowest still bacteriostatically effective concentration).
(§5) The following test organisms were used:
(§6) Staphylococcus aureus SG 511, St. aureus E 88 (β-lactamase carrier), Escherichia coli ATCC 11 775, Pseudomonas aeruginosa Hamburgensis and Pseudomonas aeruginosa Walter, Serratia macrescens ATCC 13 880, Klebsiella pneumoniae ATCC 10 031 and 272, Proteus mirabilis Hamburgensis, Proteus rettgeri Eb. cloaceae ATCC 13047, and E. coli R+TEM (β-lactamase carrier).
(§7) The following tables show the determined minimum inhibitory concentrations (MIC) for a few representative compounds (E=Na) of the present invention, and two known cephalosporins for comparison: […]

Assay [2] deals with Klebsiella pneumoniae 272. The experiment in a line: Serial dilution test in the microtiter system, MIC against Klebsiella pneumoniae 272. Format: cell-based. The following applies: minimum inhibitory concentration, 37° C., 18 to 20 hours, read-out: MIC, Klebs. pneum. 272. How it is done:
as §1, §2, §3, §4, §5, §6, §7

Assay [3] concerns Pseudomonas aeruginosa Hamburgensis. The experiment in a line: Serial dilution test in the microtiter system, MIC against Pseudomonas aeruginosa Hamburgensis. Format: cell-based. The following applies: minimum inhibitory concentration, 37° C., 18 to 20 hours, read-out: MIC, Pseud. aerug. Hbg. How it is done: as §1, §2, §3, §4, §5, §6, §7
For another assay, the system named is St. aureus E 88. The experiment in a line: Serial dilution test in the microtiter system, MIC against S. aureus E 88 (β-lactamase carrier). The following applies: Staphylococcus aureus, E88, minimum inhibitory concentration, 37° C., 18 to 20 hours. Format: cell-based. How it is done: as §1, §2, §3, §4, §5, §6, §7
Assay [4] has as its system Serratia macrescens ATCC 13 880. Briefly: Serial dilution test in the microtiter system, MIC against Serratia marcescens ATCC 13880. Format: cell-based. The following applies: read-out: MIC, Serr. marcesc. ATCC 13880. How it is done: as §1, §2, §3, §4, §5, §6, §7
Assay [5] has as its system Escherichia coli ATCC 11 775. The experiment in a line: Serial dilution test in the microtiter system, MIC against E. coli ATCC 11775. Format: cell-based. The following applies: minimum inhibitory concentration, 37° C., 18 to 20 hours. How it is done:
as §1, §2, §3, §4, §5, §6, §7

In assay [6] the test system is Staphylococcus aureus SG 511. Briefly: Serial dilution test in the microtiter system, MIC against S. aureus SG 511. It counts as cell-based. The following applies: SG511, minimum inhibitory concentration, 37° C., 18 to 20 hours. The protocol:
as §1, §2, §3, §4, §5, §6, §7

The next assay relates to Proteus rettgeri. Briefly: Serial dilution test in the microtiter system, MIC against Proteus rettgeri. The following applies: Providencia rettgeri; minimum inhibitory concentration; 37° C., 18 to 20 hours; read-out: MIC, Prot. rettg. Format: cell-based. How it is done:
as §1, §2, §3, §4, §5, §6, §7

The test system of assay [7] is Klebsiella pneumoniae ATCC 10 031. Briefly: Serial dilution test in the microtiter system, MIC against Klebsiella pneumoniae ATCC 10031. It counts as cell-based. The following applies: minimum inhibitory concentration, 37° C., 18 to 20 hours, read-out: MIC, Klebs. pneum. ATCC 10031. How it is done:
as §1, §2, §3, §4, §5, §6, §7

The subject of a further assay is Eb. cloaceae ATCC 13047. The experiment in a line: Serial dilution test in the microtiter system, MIC against Eb. cloaceae ATCC 13047. It counts as cell-based. The following applies: minimum inhibitory concentration; 37° C., 18 to 20 hours. How it is done: as §1, §2, §3, §4, §5, §6, §7
For another assay, the system named is E. coli R+TEM. The experiment in a line: Serial dilution test in the microtiter system, MIC against E. coli R+TEM (β-lactamase carrier). The following applies: Escherichia coli, read-out: MIC, E. coli R + TEM. It counts as cell-based. How it is done:
as §1, §2, §3, §4, §5, §6, §7

Assay [8] relates to Proteus mirabilis Hamburgensis. Briefly: Serial dilution test in the microtiter system, MIC against Proteus mirabilis Hamburgensis. It counts as cell-based. The following applies: minimum inhibitory concentration, 37° C., 18 to 20 hours, read-out: MIC, Prot. Mir. Hbg. How it is done: as §1, §2, §3, §4, §5, §6, §7
Another assay relates to E. coli ATCC 11775. Briefly: In vivo test in mice against experimental E. coli infection. Further details: species or system Female NMRI mice. The following applies: Escherichia coli, ATCC11775, sc, 168 h; subcutaneous; per dose; dose at which 50% of the animals survived; observation 7 days. How it is done: (§8) A series of the compounds according to the invention was tested in vivo in mice against experimental infections. As pathogenic bacteria were used E. coli ATCC 11775 and Pseudomonas aeruginosa Walter. An intraperitoneal infection was induced in each mouse with 0.2 ml of a 5% mucin suspension of the bacteria corresponding of approximately 1.4×10^6 E. coli cells and 1.3×10^6 Pseudomonas cells per mouse. Female NMRI mice were used, divided into groups of 10 animals. Two groups were untreated and the remaining groups were treated with different doses of the cephalosporins to be tested to determine the ED50 (dose at which 50% of the animals survived). The groups infected with E. coli were on the first day treated with the test compound three times ([…] post infectionem) and on the second day twice. The groups with the Pseudomonas infection were on the first day treated with the test compound six times (1, 3, 5, 7, 9 and 11 hours post infectionem), and on the following two days twice.
(§9) The observation time was in both cases 7 days.

The test system of assay [9] is Pseudomonas aeruginosa Walter. The experiment in a line: In vivo test in mice against experimental Pseudomonas infection. The following applies: Pseudomonas aeruginosa, sc, 168 h; subcutaneous; per dose; dose at which 50% of the animals survived; observation 7 days. On the set-up: species or system Female NMRI mice. How it is done:
as §8, §9

SMILES strings stand for the structures. Converted amounts (≈) assume the structure as drawn.

Regarding `Cc1nnc(SCC2=C(C(=O)O)N3C(=O)[C@@H](NC(=O)[C@H](NC(=O)Nc4cnc(NC5CCC(O)CC5)nc4O)c4ccc(O)cc4)[C@H]3SC2)s1` (some centres unmarked) [G], the MIC was found to be 16 µg/mL (≈ 21.5 µM) in assay [1]; 2 µg/mL (≈ 2.69 µM) in assay [2]; 16 µg/mL (≈ 21.5 µM) in [3]; 16 µg/mL (≈ 21.5 µM) in the assay with St. aureus E 88; 2 µg/mL (≈ 2.69 µM) in [4]; 0.5 µg/mL (≈ 0.672 µM) in assay [5]. The MIC in assay [6] was determined as 1 µg/mL (≈ 1.34 µM); in the assay with Proteus rettgeri, 1 µg/mL (≈ 1.34 µM); in assay [7], 2 µg/mL (≈ 2.69 µM); against Eb. cloaceae ATCC 13047, 2 µg/mL (≈ 2.69 µM); in the assay on E. coli R+TEM, 16 µg/mL; in assay [8] it was 0.5 µg/mL (≈ 0.672 µM).
Consider `CNS(=O)(=O)c1ccc(Nc2ncc(NC(=O)N[C@@H](C(=O)N[C@@H]3C(=O)N4C(C(=O)O)=C(CSc5nnc(C)s5)CS[C@H]34)c3ccc(O)cc3)c(O)n2)cc1` [N], for which the MIC in assay [1] amounted to 4 µg/mL (≈ 4.91 µM); in assay [2], 0.5 µg/mL (≈ 0.614 µM); in assay [3], 4 µg/mL (≈ 4.91 µM); against St. aureus E 88, 8 µg/mL (≈ 9.82 µM); in assay [4] it was 0.25 µg/mL (≈ 0.307 µM); in [5], 0.25 µg/mL (≈ 0.307 µM). Besides, the MIC in [6] came to 1 µg/mL (≈ 1.23 µM); with Proteus rettgeri it was 0.5 µg/mL (≈ 0.614 µM); in assay [7], 0.25 µg/mL (≈ 0.307 µM); in the assay with Eb. cloaceae ATCC 13047 it was 1 µg/mL (≈ 1.23 µM); in the assay with E. coli R+TEM it was 4 µg/mL; in [8], 0.5 µg/mL (≈ 0.614 µM).
On to `CCCNc1ncc(NC(=O)N[C@@H](C(=O)N[C@@H]2C(=O)N3C(C(=O)O)=C(CSc4nnnn4C)CS[C@H]23)c2ccc(O)cc2)c(O)n1` [B], for which the MIC was 8 µg/mL (≈ 11.9 µM) in assay [1]; 0.5 µg/mL (≈ 0.744 µM) in assay [2]; 4 µg/mL (≈ 5.95 µM) in assay [3]; 8 µg/mL (≈ 11.9 µM) with St. aureus E 88; 1 µg/mL (≈ 1.49 µM) in assay [4]; 0.5 µg/mL (≈ 0.744 µM) in [5]. Besides, the minimum inhibitory concentration (MIC) is 1 µg/mL (≈ 1.49 µM) in [6]; 1 µg/mL (≈ 1.49 µM) in the assay on Proteus rettgeri; 0.5 µg/mL (≈ 0.744 µM) in [7]; 1 µg/mL (≈ 1.49 µM) against Eb. cloaceae ATCC 13047; 8 µg/mL in the assay on E. coli R+TEM; 0.25 µg/mL (≈ 0.372 µM) in assay [8]. Further, the ED50 with E. coli ATCC 11775 was 1.1 mg/kg; in [9] it was 12.4 mg/kg.
Consider `CC(=O)Nc1nnc(SCC2=C(C(=O)O)N3C(=O)[C@@H](NC(=O)[C@H](NC(=O)Nc4cnc(NC5CCC(O)CC5)nc4O)c4ccc(O)cc4)[C@H]3SC2)s1` (some centres unmarked) [D], for which the MIC in [1] is 8 µg/mL (≈ 10.2 µM); in assay [2], 2 µg/mL (≈ 2.54 µM); in [3], 8 µg/mL (≈ 10.2 µM); with St. aureus E 88 it was 8 µg/mL (≈ 10.2 µM); in assay [4] it was 4 µg/mL (≈ 5.08 µM); in assay [5], 1 µg/mL (≈ 1.27 µM). Further, the minimum inhibitory concentration (MIC) in [6] came to 1 µg/mL (≈ 1.27 µM); with Proteus rettgeri it was 8 µg/mL (≈ 10.2 µM); in assay [7] it was 2 µg/mL (≈ 2.54 µM); against Eb. cloaceae ATCC 13047 it was 8 µg/mL (≈ 10.2 µM); in the assay with E. coli R+TEM, 16 µg/mL; in assay [8], 1 µg/mL (≈ 1.27 µM).
Regarding `Cc1nnc(SCC2=C(C(=O)O)N3C(=O)[C@@H](NC(=O)Cn4cnnn4)[C@H]3SC2)s1` [Cephazolin, reference compound], the MIC in [1] is above 100 µg/mL; in assay [2], 2 µg/mL (≈ 4.4 µM); in assay [3], above 100 µg/mL; with St. aureus E 88, 8 µg/mL (≈ 17.6 µM); in assay [4] it was above 100 µg/mL; in assay [5] it was 4 µg/mL (≈ 8.8 µM). Further, the MIC was 0.06 µg/mL (≈ 0.132 µM) in assay [6]; above 100 µg/mL in the assay with Proteus rettgeri; 1 µg/mL (≈ 2.2 µM) in [7]; above 100 µg/mL in the assay on Eb. cloaceae ATCC 13047; 4 µg/mL with E. coli R+TEM; 4 µg/mL (≈ 8.8 µM) in assay [8].
